{"source": "patent EP4737454A1", "about": "“GLP-1 RECEPTOR AGONIST, AND PREPARATION METHOD THEREFOR AND USE THEREOF” (Wayne Biotechnology Co., Ltd., priority 2023, dated 2025)"}
{"biological_target": "Human GLP-1R (Homo sapiens, UniProt P43220)", "sequence (P43220 24-463)": "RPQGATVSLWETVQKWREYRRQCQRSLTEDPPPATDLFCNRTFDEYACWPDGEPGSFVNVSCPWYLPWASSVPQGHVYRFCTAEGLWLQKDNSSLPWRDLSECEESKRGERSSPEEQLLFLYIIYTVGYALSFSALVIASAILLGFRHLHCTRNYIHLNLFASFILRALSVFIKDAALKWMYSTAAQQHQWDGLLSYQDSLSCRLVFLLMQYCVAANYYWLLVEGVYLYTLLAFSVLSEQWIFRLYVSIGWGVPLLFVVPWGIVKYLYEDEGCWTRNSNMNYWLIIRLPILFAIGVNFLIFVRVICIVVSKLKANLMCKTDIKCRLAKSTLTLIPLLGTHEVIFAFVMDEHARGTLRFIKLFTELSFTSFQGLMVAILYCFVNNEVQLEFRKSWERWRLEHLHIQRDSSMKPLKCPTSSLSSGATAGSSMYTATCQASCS", "test": "cAMP level determination in human GLP-1R stably transfected HEK293T cells (HTRF cAMP kit)", "format": "cell-based", "settings": "37°C 30 min", "procedure": "Human GLP-1R HEK293T stably transfected cells were digested with trypsin, terminated with DMEM total (without p/s), centrifuged and washed twice with 1X Stimulation buffer, then resuspended in 1X stimulation buffer and counted. The cells were then prepared as a 1 Million/mL cell suspension in stimulation buffer. Compound powder was first prepared as a 10 mM stock solution in DMSO, then diluted to 2 mM with DMSO, and further prepared as 2X compound in 1X stimulation buffer (Cisbio kit buffer with freshly added IBMX at a final concentration of 0.5 mM). The top dose final concentration was 2000 nM, with a final DMSO concentration of 0.2%, diluted in a 1:3 gradient for 11 gradients.\nAccording to the layout, 5 µl of compound was added to each well; Min wells contained 100 nM GLP-1, and Max wells contained 0.2% DMSO in 1X stimulation buffer. 5 µl of cell suspension was added to each well, centrifuged at 300 rpm at room temperature for 1 min, then incubated at 37°C for 30 min. 2X cAMP standards were prepared in 1X Stimulation buffer, with a top final concentration of 2.8 µM, diluted in a 1:3 gradient for 12 doses. According to the layout, 10 µl was added to each well. Finally, d2 and antibody were diluted 20-fold in 1X Detection buffer (Cisbio kit buffer), and 5 µl of each was added to each well according to the layout. After centrifugation at 300 rpm at room temperature for 1 min, the plate was incubated at room temperature for 2 hr.\nStimulation% was calculated based on Min and Max readings (665nm/615nm ratio) using the formula: 100*(ratio Max well - ratio test well)/(ratio Max well - ratio Min well). The cAMP concentration in each test well was derived from the cAMP standard curve, and the data was analyzed using GraphPad Prism 9 to plot four-parameter fit curves and calculate EC50 values using the formula: Y=Bottom + (Top-Bottom)/(1+10^((LogEC50-X)*HillSlope)). Table 1: cAMP Level Determination in Human GLP-1R Stably Transfected HEK293T Cells", "units": {"EC50": "nM"}}
{"smiles": "Cc1cc(-n2nc3c(c2-n2ccn(-c4ccc(OC(F)(F)F)c(C(=O)N(C)C5CC5)c4)c2=O)[C@H](C)N(C(=O)c2cc4cc(C5CCOC(C)(C)C5)ccc4n2[C@@]2(c4nc(=O)o[nH]4)C[C@@H]2C)CC3)cc(C)c1F", "note": "(stereo partly shown) [Compound 38]", "EC50": 18.1}
{"smiles": "Cc1cc(-n2nc3c(c2-n2ccn(-c4ccccc4C#N)c2=O)[C@H](C)N(C(=O)c2cc4cc(C5CCOC(C)(C)C5)ccc4n2[C@@]2(c4nc(=O)o[nH]4)C[C@@H]2C)CC3)cc(C)c1F", "note": "(stereo partly shown) [Compound 89]", "EC50": 201}
{"smiles": "Cc1cc(-n2nc3c(c2-n2ccn(-c4cc(F)cc(C#N)c4)c2=O)[C@H](C)N(C(=O)c2cc4cc(C5CCOC(C)(C)C5)ccc4n2[C@@]2(c4nc(=O)o[nH]4)C[C@@H]2C)CC3)cc(C)c1F", "note": "(stereo partly shown) [Compound 92]", "EC50": 43.5}
{"smiles": "Cc1cc(-n2nc3c(c2-n2ccn(-c4cc(F)c(C(=O)N(C)C5CC5)c(Cl)c4F)c2=O)[C@H](C)N(C(=O)c2cc4cc(C5CCOC(C)(C)C5)ccc4n2[C@@]2(c4nc(=O)o[nH]4)C[C@@H]2C)CC3)cc(C)c1F", "note": "(stereo partly shown) [Compound 19]", "EC50": 16.2}
{"smiles": "C[C@H]1c2c(nn(-c3ccc(F)c(C4CC4)c3)c2-n2ccn(-c3ccc4c(cnn4C)c3F)c2=O)CCN1C(=O)c1cc2cc([C@H]3CCOC(C)(C)C3)ccc2n1[C@@]1(c2nc(=O)o[nH]2)C[C@@H]1C", "note": "[Compound 1b]", "EC50": 17.5}
{"smiles": "Cc1cc(-n2nc3c(c2-n2ccn(-c4ccc(C(F)(F)F)c(C(=O)N(C)C5CC5)c4)c2=O)[C@H](C)N(C(=O)c2cc4cc(C5CCOC(C)(C)C5)ccc4n2[C@@]2(c4nc(=O)o[nH]4)C[C@@H]2C)CC3)cc(C)c1F", "note": "(stereo partly shown) [Compound 37]", "EC50": 18.8}
{"smiles": "Cc1cc(-n2nc3c(c2-n2ccn(-c4ccc(N(C)C(=O)C5(C)CC5)c(F)c4)c2=O)[C@H](C)N(C(=O)c2cc4cc([C@H]5CCOC(C)(C)C5)ccc4n2[C@@]2(c4nc(=O)o[nH]4)C[C@@H]2C)CC3)cc(C)c1F", "note": "[Compound 71]", "EC50": 4.01}
{"smiles": "Cc1cc(-n2nc3c(c2-n2ccn(-c4ccc(C#N)c(OC(F)F)c4)c2=O)[C@H](C)N(C(=O)c2cc4cc(C5CCOC(C)(C)C5)ccc4n2[C@@]2(c4nc(=O)o[nH]4)C[C@@H]2C)CC3)cc(C)c1F", "note": "(stereo partly shown) [Compound 95]", "EC50": 17.6}
{"smiles": "Cc1cc(-n2nc3c(c2-n2ccn(-c4ccc5c(c4)CCS5(=O)=O)c2=O)[C@H](C)N(C(=O)c2cc4cc([C@H]5CCOC(C)(C)C5)ccc4n2[C@@]2(c4nc(=O)o[nH]4)C[C@@H]2C)CC3)cc(C)c1F", "note": "[Compound 56b]", "EC50": 5.59}
{"smiles": "Cc1cc(-n2nc3c(c2-n2ccn(-c4ccc(C(=O)N(C)C5(C)CC5)c(C(F)(F)F)c4)c2=O)[C@H](C)N(C(=O)c2cc4cc([C@H]5CCOC(C)(C)C5)ccc4n2[C@@]2(c4nc(=O)o[nH]4)C[C@@H]2C)CC3)cc(C)c1F", "note": "[Compound 15]", "EC50": 7.27}
{"smiles": "C[C@H]1c2c(nn(-c3ccc(F)c(C4CC4(F)F)c3)c2-n2ccn(-c3ccc4c(cnn4C)c3F)c2=O)CCN1C(=O)c1cc2cc(C3CCOC(C)(C)C3)ccc2n1[C@@]1(c2nc(=O)o[nH]2)C[C@@H]1C", "note": "(stereo partly shown) [Compound 2]", "EC50": 56.5}
{"smiles": "Cc1cc(-n2nc3c(c2-n2ccn(-c4ccc(C#N)c(F)c4)c2=O)[C@H](C)N(C(=O)c2cc4cc([C@H]5CCOC(C)(C)C5)ccc4n2[C@@]2(c4nc(=O)o[nH]4)C[C@@H]2C)CC3)cc(C)c1F", "note": "[Compound 82b]", "EC50": 6.4}
{"smiles": "Cc1cc(-n2nc3c(c2-n2ccn(-c4ccc5c(c4)CCN(C4CC4)C5=O)c2=O)[C@H](C)N(C(=O)c2cc4cc(C5CCOC(C)(C)C5)ccc4n2[C@@]2(c4nc(=O)o[nH]4)C[C@@H]2C)CC3)cc(C)c1F", "note": "(stereo partly shown) [Compound 55]", "EC50": 8.07}
{"smiles": "Cc1cc(-n2nc3c(c2-n2ccn(-c4ccc(N(C)C(=O)C5CCC5)c(F)c4)c2=O)[C@H](C)N(C(=O)c2cc4cc([C@H]5CCOC(C)(C)C5)ccc4n2[C@@]2(c4nc(=O)o[nH]4)C[C@@H]2C)CC3)cc(C)c1F", "note": "[Compound 72]", "EC50": 9.71}
{"smiles": "Cc1cc(-n2nc3c(c2-n2ccn(-c4ccc(C(=O)N(C)C5CCC5)cc4)c2=O)[C@H](C)N(C(=O)c2cc4cc(C5CCOC(C)(C)C5)ccc4n2[C@@]2(c4nc(=O)o[nH]4)C[C@@H]2C)CC3)cc(C)c1F", "note": "(stereo partly shown) [Compound 21]", "EC50": 14.4}
{"smiles": "Cc1cc(-n2nc3c(c2-n2ccn(-c4cc5c(cc4F)S(=O)(=O)CC5)c2=O)[C@H](C)N(C(=O)c2cc4cc(C5CCOC(C)(C)C5)ccc4n2[C@@]2(c4nc(=O)o[nH]4)C[C@@H]2C)CC3)cc(C)c1F", "note": "(stereo partly shown) [Compound 61]", "EC50": 10.8}
{"smiles": "Cc1cc(-n2nc3c(c2-n2ccn(-c4ccc(C(=O)N(C)C5CC5)c(OC(F)(F)F)c4F)c2=O)[C@H](C)N(C(=O)c2cc4cc([C@H]5CCOC(C)(C)C5)ccc4n2[C@@]2(c4nc(=O)o[nH]4)C[C@@H]2C)CC3)cc(C)c1F", "note": "[Compound 54]", "EC50": 4.48}
{"smiles": "Cc1cc(-n2nc3c(c2-n2ccn(-c4cccc(C#N)c4)c2=O)[C@H](C)N(C(=O)c2cc4cc(C5CCOC(C)(C)C5)ccc4n2[C@@]2(c4nc(=O)o[nH]4)C[C@@H]2C)CC3)cc(C)c1F", "note": "(stereo partly shown) [Compound 80]", "EC50": 11.5}
{"smiles": "Cc1cc(-n2nc3c(c2-n2ccn(-c4ccc(C#N)cc4F)c2=O)[C@H](C)N(C(=O)c2cc4cc(C5CCOC(C)(C)C5)ccc4n2[C@@]2(c4nc(=O)o[nH]4)C[C@@H]2C)CC3)cc(C)c1F", "note": "(stereo partly shown) [Compound 81]", "EC50": 11}
{"smiles": "Cc1cc(-n2nc3c(c2-n2ccn(-c4ccc5c(c4F)CCS5(=O)=O)c2=O)[C@H](C)N(C(=O)c2cc4cc(C5CCOC(C)(C)C5)ccc4n2[C@@]2(c4nc(=O)o[nH]4)C[C@@H]2C)CC3)cc(C)c1F", "note": "(stereo partly shown) [Compound 60]", "EC50": 10.6}
{"smiles": "Cc1cc(-n2nc3c(c2-n2ccn(-c4ccc(N(C)C(=O)C5CC5)c(F)c4)c2=O)[C@H](C)N(C(=O)c2cc4cc([C@H]5CCOC(C)(C)C5)ccc4n2[C@@]2(c4noc(=O)[nH]4)C[C@@H]2C)CC3)cc(C)c1F", "note": "[Compound 63b]", "EC50": 6.4}
{"smiles": "Cc1cc(-n2nc3c(c2-n2ccn(-c4cccc(C(=O)NC5CC5)c4)c2=O)[C@H](C)N(C(=O)c2cc4cc(C5CCOC(C)(C)C5)ccc4n2[C@@]2(c4nc(=O)o[nH]4)C[C@@H]2C)CC3)cc(C)c1F", "note": "(stereo partly shown) [Compound 47]", "EC50": 65.1}
{"smiles": "Cc1cc(-n2nc3c(c2-n2ccn(-c4ccc(N(C)C(=O)C5CC5)cc4F)c2=O)[C@H](C)N(C(=O)c2cc4cc([C@H]5CCOC(C)(C)C5)ccc4n2[C@@]2(c4nc(=O)o[nH]4)C[C@@H]2C)CC3)cc(C)c1F", "note": "[Compound 76]", "EC50": 8.18}
{"smiles": "Cc1cc(-n2nc3c(c2-n2ccn(-c4ccc(N(C)C5CC5)c(Cl)c4)c2=O)[C@H](C)N(C(=O)c2cc4cc(C5CCOC(C)(C)C5)ccc4n2[C@@]2(c4nc(=O)o[nH]4)C[C@@H]2C)CC3)cc(C)c1F", "note": "(stereo partly shown) [Compound 67]", "EC50": 67.8}
{"smiles": "Cc1cc(-n2nc3c(c2-n2ccn(-c4ccc(C(=O)N(C)C5(C(F)(F)F)CC5)cc4)c2=O)[C@H](C)N(C(=O)c2cc4cc(C5CCOC(C)(C)C5)ccc4n2[C@@]2(c4nc(=O)o[nH]4)C[C@@H]2C)CC3)cc(C)c1F", "note": "(stereo partly shown) [Compound 16]", "EC50": 10}
{"smiles": "C[C@H]1c2c(nn(-c3ccc(F)c(N4CCCC4)c3)c2-n2ccn(-c3ccc4c(cnn4C)c3F)c2=O)CCN1C(=O)c1cc2cc(C3CCOC(C)(C)C3)ccc2n1[C@@]1(c2nc(=O)o[nH]2)C[C@@H]1C", "note": "(stereo partly shown) [Compound 3]", "EC50": 26.5}
{"smiles": "Cc1cc(-n2nc3c(c2-n2ccn(-c4ccc(C(=O)N(C)C5CC5)c(C(F)(F)F)c4F)c2=O)[C@H](C)N(C(=O)c2cc4cc([C@H]5CCOC(C)(C)C5)ccc4n2[C@@]2(c4nc(=O)o[nH]4)C[C@@H]2C)CC3)cc(C)c1F", "note": "[Compound 14]", "EC50": 5.61}
{"smiles": "Cc1cc(-n2nc3c(c2-n2ccn(-c4ccc(C(=O)N(C)C5CC5)nc4)c2=O)[C@H](C)N(C(=O)c2cc4cc(C5CCOC(C)(C)C5)ccc4n2[C@@]2(c4nc(=O)o[nH]4)C[C@@H]2C)CC3)cc(C)c1F", "note": "(stereo partly shown) [Compound 24]", "EC50": 54.2}
